Assay results from PubChem BioAssay AID1194 (EPA DSSTox, 2008).
Activity calls are given as the source filed them.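 How the source made its calls: active means chemicals rated mutagenic or weakly mutagenic in the Salmonella bacterial test by one literature review, or positive overall by another; inconclusive means no clear call, values can overlap the other calls; inactive means the rest.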

System: Salmonella typhimurium Ames mutagenicity, literature compiled
Assay: DSSTox (CPDBAS) Carcinogenic Potency Database Salmonella Mutagenicity
Outline: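 Calls derive from published evaluations rather than new testing; overall "positive" in EPA Gene-Tox, or "mutagenic"/"weakly mutagenic" per Zeiger, counts as active.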

| SMILES | outcome |
| --- | --- |
| CN(C#N)N=O | active; inactive |
| Nc1c(Br)cc(Br)c2c1C(=O)c1ccccc1C2=O | active |
| CCCCC(CC)COC(=O)c1ccccc1C(=O)OCC(CC)CCCC (stereo unspecified) | inactive; active |
| O=C(O)CC[N+](=O)[O-] | active; inactive |
| c1ccc2[nH]c(-c3cscn3)nc2c1 | active |
| O | inactive |
| CC(=O)Nc1nnc(-c2ccc([N+](=O)[O-])o2)s1 | active |
| COc1ccc([N+](=O)[O-])cc1N=Nc1c(O)c(C(=O)Nc2cccc([N+](=O)[O-])c2)cc2ccccc12 | active; inactive |
| CC(=O)NCc1nc(-c2ccc([N+](=O)[O-])o2)no1 | active |
| CCNC(=S)NCC | inactive |
| O=C1c2ccccc2C(=O)N1SC(Cl)(Cl)Cl | active |
| CCN(CC)C(=O)/C(Cl)=C(\C)OP(=O)(OC)OC | active; inactive |
| Cc1cccc(N)c1 | inactive |
| ClC1=C(Cl)[C@]2(Cl)[C@@H]3[C@@H]4C[C@@H]([C@H]5O[C@@H]45)[C@@H]3[C@@]1(Cl)C2(Cl)Cl | inactive; active |
| COC(=O)C(c1ccccc1)C1CCCCN1 (stereo unspecified) | inactive |
| O=C(N[C@H](CO)[C@H](O)c1ccc([N+](=O)[O-])cc1)C(Cl)Cl | inactive |
| Nc1ccc(Cl)cc1N | active; inactive |
| C=CC(=C)C | inactive |
| ClCC(Cl)(Cl)Cl | inactive; active |
| Cc1ccc(N=Nc2c(O)ccc3ccccc23)c([N+](=O)[O-])c1 | active; inactive |
| O=C1OC(=O)c2ccccc21 | inactive; active |
| CC(=O)N(O)c1ccc2c(c1)Cc1ccccc1-2 | active; inactive |

| SMILES | outcome |
| --- | --- |
| Nc1cc(S(=O)(=O)O)cc2cc(S(=O)(=O)O)c(N=Nc3ccc(-c4ccc(N=Nc5c(S(=O)(=O)O)cc6cc(S(=O)(=O)O)cc(N)c6c5O)cc4)cc3)c(O)c12 | active |
| NC(=S)Nc1ccccc1 | inactive |
| CCCCCCCCCCCCN(C)N=O | active |
| O=[N+]([O-])c1ccc(NCCO)c(OCCO)c1 | active |
| CN(Cc1cnc2nc(N)nc(N)c2n1)c1ccc(C(=O)N[C@@H](CCC(=O)O)C(=O)O)cc1 | inactive |
| c1ccc2sc(SSc3nc4ccccc4s3)nc2c1 | active; inactive |
| ClCC(Cl)CCl | active; inactive |
| CCCN(CCC)S(=O)(=O)c1ccc(C(=O)O)cc1 | inactive; active |
| CC(C)CON=O | active; inactive |
| CCOC(N)=O | active; inactive |
| [CH3][Hg][Cl] | inactive; active |
| C=C1C(CCl)(CCl)C2(Cl)C(Cl)C(Cl)C1(Cl)C2(Cl)Cl (stereo unspecified) | active; inactive |
| CCOC(=O)N(CC)N=O | active; inactive |
| COc1cc(-c2ccc(N=C=O)c(OC)c2)ccc1N=C=O | active |
| O=Nc1ccc(NO)cc1 | active; inactive |
| CCC[CH2][Sn]([CH2]CCC)([CH2]CCC)[O][Sn]([CH2]CCC)([CH2]CCC)[CH2]CCC | inactive |
| COc1cc(N=Nc2ccccc2)ccc1N | active |
| Cc1ccc(C)c(N)c1 | active; inactive |
| CNC(=S)N(C)C | inactive; active |
| C=Cc1ccccc1 | active; inactive |
| O=NN1CCSCC1 | active; inactive |
| O=[N+]([O-])c1ccc2c3c(cccc13)CC2 | active |

| SMILES | outcome |
| --- | --- |
| CCCCCCc1ccc(O)cc1O | inactive; active |
| c1ccc2c(c1)Oc1ccccc1O2 | inactive |
| CN(C)N=O | active |
| CN(CCCC(=O)O)N=O | inactive |
| CN(C)c1ccc(C(=C2C=CC(=[N+](C)C)C=C2)c2ccc(N(C)C)cc2)cc1 | inactive; active |
| CN(C)c1ccc(Cc2ccc(N(C)C)cc2)cc1 | active |
| Cc1ccc(N=Nc2c(O)c(S(=O)(=O)O)cc3ccc(S(=O)(=O)O)cc23)c(C)c1 | active |
| O=C(O)c1ccccc1-c1c2cc(I)c(=O)c(I)c-2oc2c(I)c(O)c(I)cc12 | inactive |
| O=[N+]([O-])c1ccc(-c2nc(N(CCO)CCO)c3ccccc3n2)s1 | inactive; active |
| O=c1cc[nH]c(=O)[nH]1 | inactive; active |
| S=C(NC1CCCCC1)NC1CCCCC1 | inactive; active |
| CCNc1nc(Cl)nc(NCC)n1 | inactive |
| O=NN1CCOCC1 | active |
| Nc1ccc2ccccc2c1 | active; inactive |
| O=C(OOC(=O)c1ccccc1)c1ccccc1 | inactive; active |
| CC(C)CCCCCCOC(=O)c1ccccc1C(=O)OCCCCCCC(C)C | inactive; active |
| CC(C)CCC[C@@H](C)[C@H]1CC[C@H]2[C@@H]3CC=C4C[C@@H](OC(=O)Cc5ccc(N(CCCl)CCCl)cc5)CC[C@]4(C)[C@H]3CC[C@]12C | inactive; active |
| O=S1(=O)CCCO1 | active; inactive |
| O=C/C(Cl)=C(/Cl)C(=O)O | active |
| NCCCCCCCCCCC(=O)O | inactive; active |
| [O-][Br+2]([O-])O | active |
| CCCCCc1cc(O)c2c(c1)OC(C)(C)[C@@H]1CCC(C)=C[C@@H]21 | inactive; active |

| SMILES | outcome |
| --- | --- |
| Oc1cc2c(cc1O)[C@H]1c3ccc(O)c(O)c3OC[C@@]1(O)C2 | inactive; active |
| FC(F)OC(Cl)C(F)(F)F (stereo unspecified) | inactive |
| Clc1cc2c(cc1Cl)Oc1cc(Cl)c(Cl)cc1O2 | inactive; active |
| C[C@]12C=CC(=O)C=C1CC[C@@H]1[C@@H]2[C@@H](O)C[C@@]2(C)[C@H]1CC[C@]2(O)C(=O)CO | inactive; active |
| CCOc1ccc(NC(C)=O)cc1[N+](=O)[O-] | active; inactive |
| CN(C)CCOC(C)(c1ccccc1)c1ccccn1 (stereo unspecified) | inactive |
| O=C(c1ccccc1)C(O)c1ccccc1 (stereo unspecified) | inactive |
| CN(C)C(=O)Nc1ccc(Cl)cc1 | inactive; active |
| C=CCc1ccc(OC)c(OC)c1 | inactive; active |
| C/C=C/c1ccc2c(c1)OCO2 | inactive; active |
| CBr | active |
| OCc1ccco1 | inactive; active |
| CCOC(=O)N(C)N=O | active |
| NCCNc1cccc2ccccc12 | active |
| C=C(C)C | inactive |
| Cn1c(N)nc2ncc(-c3ccccc3)cc21 | active |
| NC(=O)CCCCC(N)=O | inactive |
| CCOc1ccc2c(c1)C(C)=CC(C)(C)N2 | inactive; active |
| CCN(Cc1cccc(S(=O)(=O)O)c1)c1ccc(C(=C2C=CC(=[N+](CC)Cc3cccc(S(=O)(=O)[O-])c3)C=C2)c2ccc(S(=O)(=O)O)cc2)cc1 | inactive; active |
| Nc1ccc2c(n1)[nH]c1ccccc12 | active |
| O=C(O)CCCc1ccc(N(CCCl)CCCl)cc1 | active; inactive |
| [O-]/[N+](=N\O)c1ccccc1 | active; inactive |

| SMILES | outcome |
| --- | --- |
| O=NN1CCCCCCCCCCCC1 | active; inactive |
| CCCCOC(=O)c1ccccc1C(=O)OCc1ccccc1 | inactive |
| CC(C)(c1ccc(O)cc1)c1ccc(O)cc1 | inactive |
| O=C1CCCCCN1 | inactive; active |
| O=C1CN(/N=C/c2ccc([N+](=O)[O-])o2)C(=O)N1 | active |
| O=Cc1ccco1 | active; inactive |
| O=C1O[C@H]([C@@H](O)CO)C(O)=C1O | inactive |
| ClC(Cl)(Cl)C(Cl)(Cl)Cl | inactive; active |
| CC(N)Cc1ccccc1 (stereo unspecified) | inactive |
| O=C(O)C(Cl)Cl | active |
| CC(C)=CCl | active; inactive |
| C[N+](=O)[O-] | inactive; active |
| CC(=O)OC(OC(C)=O)c1ccc([N+](=O)[O-])o1 | active |
| COc1ccc(N)c(OC)c1 | active; inactive |
| c1ccc(C2CO2)cc1 (stereo unspecified) | active; inactive |
| Nc1ccc(-c2ccccc2)cc1 | active |
| ClC1=C(Cl)C2(Cl)C3C(Cl)C=CC3C1(Cl)C2(Cl)Cl (stereo unspecified) | inactive; active |
| C=CC=O | active; inactive |
| COC(C)(C)C | inactive; active |
| CCCCCCCC(=O)OCC(COC(=O)CCCCCCC)OC(=O)CCCCCCC | active; inactive |
| CCCCC(CC)COC(=O)COc1ccc(Cl)cc1Cl (stereo unspecified) | inactive |
| Nc1ccccc1N | active |

| SMILES | outcome |
| --- | --- |
| O=NN1CCCC1 | active |
| CCc1nc(N)nc(N)c1-c1ccc(Cl)cc1 | inactive; active |
| Nc1cccc2c(N)cccc12 | active |
| CCC[N+](=O)[O-] | inactive; active |
| ClC1=C(Cl)[C@]2(Cl)[C@@H]3[C@H]4C[C@H]([C@@H]5O[C@H]45)[C@@H]3[C@@]1(Cl)C2(Cl)Cl | inactive; active |
| OC[C@@H](O)[C@@H](O)[C@H](O)[C@H](O)CO | inactive; active |
| Cc1cc(-c2ccc(N)c(C)c2)ccc1N | active; inactive |
| CCOc1ccccc1C(N)=O | inactive; active |
| Clc1ccccc1 | inactive; active |
| CN(C)CNc1nnc(/C=C/c2ccc([N+](=O)[O-])o2)o1 | active |
| CC(C)N(C(=O)SC/C(Cl)=C/Cl)C(C)C | active |
| Cc1cc(N=Nc2ccccc2C)ccc1N | active |
| Nc1cc([N+](=O)[O-])ccc1O | active |
| CC(=O)OCc1ccccc1 | inactive; active |
| CCOC(=O)CC(SP(=S)(OC)OC)C(=O)OCC (stereo unspecified) | inactive |
| Nc1ccc2nc3ccccn3c2n1 | active |
| CC1=C2C(=CO[C@@H](C)[C@@H]2C)C(=O)C(C(=O)O)=C1O | inactive; active |
| Cc1noc(NS(=O)(=O)c2ccc(N)cc2)c1C | inactive; active |
| Nc1ccccc1C(=O)O | inactive |
| CCCCC1C(=O)N(c2ccccc2)N(c2ccccc2)C1=O | inactive |
| O=[N+]([O-])c1ccc(Oc2ccc(Cl)cc2Cl)cc1 | active |
